Where two headings read alike, the source gives them in different places.

What all share (assay type): biochemical
In one assay the target is T1, Cdc25A (Homo sapiens, UniProt P30304).
T1 sequence (P30304 1-524): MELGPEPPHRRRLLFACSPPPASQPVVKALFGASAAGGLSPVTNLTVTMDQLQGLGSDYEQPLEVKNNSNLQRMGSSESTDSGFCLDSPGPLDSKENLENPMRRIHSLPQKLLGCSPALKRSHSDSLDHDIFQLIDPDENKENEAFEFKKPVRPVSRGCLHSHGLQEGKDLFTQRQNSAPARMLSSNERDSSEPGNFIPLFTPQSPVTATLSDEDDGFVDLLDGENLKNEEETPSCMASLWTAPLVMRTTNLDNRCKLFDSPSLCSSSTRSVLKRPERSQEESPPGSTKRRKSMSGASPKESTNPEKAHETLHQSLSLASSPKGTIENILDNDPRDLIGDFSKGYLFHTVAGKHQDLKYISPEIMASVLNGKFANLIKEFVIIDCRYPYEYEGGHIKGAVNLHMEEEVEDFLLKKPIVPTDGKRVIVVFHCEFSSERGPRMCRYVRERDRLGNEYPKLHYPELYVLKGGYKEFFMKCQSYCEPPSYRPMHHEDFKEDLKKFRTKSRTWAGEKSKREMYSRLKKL
Put plainly: Cdc25A phosphatase inhibition screen at 50 μM. The conditions noted are these: read-out: Percent Inhibition at 50 uM compound, Cdc25 A. On the procedure: (§1) Using procedures known to those skilled in the art, the compounds listed in Table 3 were screened against Cdc25A, Cdc25B, and Cdc25C at 50 μM. […] To analyze these effects further, the compounds were then screened against Cdc25B in a 3 pt. IC-50, using 1, 7 and 50 μM. Several of the compounds were also screened with an 8 pt. IC-50 process, using 0.1–10 μM, allowing determination of Hill slopes.

The target in another assay is T2, Cdc25B (Homo sapiens, UniProt P30305).
T2 sequence (P30305 1-580): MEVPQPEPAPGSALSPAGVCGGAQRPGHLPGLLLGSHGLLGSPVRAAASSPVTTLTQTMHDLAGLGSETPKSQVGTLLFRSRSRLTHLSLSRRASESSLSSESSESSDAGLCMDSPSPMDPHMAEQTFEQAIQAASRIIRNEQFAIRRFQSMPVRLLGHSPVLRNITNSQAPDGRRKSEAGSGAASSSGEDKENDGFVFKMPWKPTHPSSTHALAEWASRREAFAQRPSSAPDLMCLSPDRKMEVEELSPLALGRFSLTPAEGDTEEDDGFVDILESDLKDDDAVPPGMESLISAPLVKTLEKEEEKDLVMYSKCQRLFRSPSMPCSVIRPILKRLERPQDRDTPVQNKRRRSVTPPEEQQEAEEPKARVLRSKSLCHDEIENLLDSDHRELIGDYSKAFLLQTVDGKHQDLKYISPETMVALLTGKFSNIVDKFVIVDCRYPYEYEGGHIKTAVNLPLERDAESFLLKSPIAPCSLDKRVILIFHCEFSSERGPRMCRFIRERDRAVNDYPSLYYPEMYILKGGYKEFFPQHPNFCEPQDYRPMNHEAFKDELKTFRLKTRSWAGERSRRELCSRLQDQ
Put plainly: Cdc25B phosphatase inhibition (50 μM screen, 3 pt. and 8 pt. IC-50). The conditions noted are these: for IC50: Cdc25B; for inhibition at 50 µM: read-out: Percent Inhibition at 50 uM compound, Cdc25 B. The procedure: as §1

The target of a further assay is T3, Cdc25C (Homo sapiens, UniProt P30307).
T3 sequence (P30307 1-473): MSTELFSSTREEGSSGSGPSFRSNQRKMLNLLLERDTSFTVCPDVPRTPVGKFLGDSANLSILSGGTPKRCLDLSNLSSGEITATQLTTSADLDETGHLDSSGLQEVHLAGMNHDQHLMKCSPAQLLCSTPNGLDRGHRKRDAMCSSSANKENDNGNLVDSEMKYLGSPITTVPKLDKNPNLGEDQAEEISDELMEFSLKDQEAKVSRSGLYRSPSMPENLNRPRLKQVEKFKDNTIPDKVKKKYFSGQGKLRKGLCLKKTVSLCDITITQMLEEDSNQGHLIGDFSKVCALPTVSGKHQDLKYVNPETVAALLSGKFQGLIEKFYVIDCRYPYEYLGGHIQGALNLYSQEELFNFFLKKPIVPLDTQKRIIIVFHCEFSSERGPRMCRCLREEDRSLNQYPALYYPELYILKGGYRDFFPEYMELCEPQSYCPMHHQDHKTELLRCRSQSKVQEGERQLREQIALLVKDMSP
Put plainly: Cdc25C phosphatase inhibition screen at 50 μM. The conditions noted are these: read-out: Percent Inhibition at 50 uM compound, Cdc25 C. On the procedure: as §1

Where [1] appears, read: 3 pt. IC-50 using 1, 7 and 50 μM, read-out: IC50 (3 pt).
The mark [2] stands for this setting: 8 pt. IC-50 using 0.1–10 μM, read-out: IC50 (8 pt).

One may read the inhibition as how much of the control response was suppressed. As usually defined, the IC50 is the concentration that inhibits the measured activity by half. With `O=C1C=C(O)C(=O)C(c2c[nH]c3ccccc23)=C1O` [2A, 2,5-dihydroxy-3(1H-indol-3-yl)-[1,4]-benzoquinone], the inhibition at 50 µM at Cdc25A was 55%; on Cdc25B, 75%; at Cdc25C it was 69%. For the same compound, the IC50 was 14.2 µM on Cdc25B (setting [1]) and 16.5 µM on Cdc25B (setting [2]).

`Cn1cc(C2=C(O)C(=O)C=C(O)C2=O)c2ccccc21` [2B, 2,5-dihydroxy-3-(1-methyl-1H-indol-3-yl)-[1,4]-benzoquinone]: the inhibition at 50 µM at Cdc25A is 63%; at Cdc25B, 42%; at Cdc25C it was 19%. Also, at Cdc25B (setting [1]), the IC50 was 185 µM.

As for `Cc1[nH]c2ccccc2c1C1=C(O)C(=O)C=C(O)C1=O` [2C, 2,5-dihydroxy-3-(2-methyl-1H-indol-3-yl)-[1,4]-benzoquinone], the inhibition at 50 µM was found to be 35% on Cdc25A, 9% on Cdc25B and 5% on Cdc25C. In addition, the IC50 on Cdc25B (setting [1]) was 138 µM.

On to `CCc1[nH]c2ccccc2c1C1=C(O)C(=O)C=C(O)C1=O` [2D, 2,5-dihydroxy-3-(2-ethyl-1H-indol-3-yl)-[1,4]-benzoquinone], for which the inhibition at 50 µM came out at 51% on Cdc25A, 36% on Cdc25B and 14% at Cdc25C. In addition, on Cdc25B (setting [1]), the IC50 was 33.4 µM.

With `O=C1C=C(O)C(=O)C(c2c(C3CC3)[nH]c3ccccc23)=C1O` [2E, 2,5-dihydroxy-3-(2-cyclopropyl-1H-indol-3-yl)-[1,4]-benzoquinone], the inhibition at 50 µM is 79% at Cdc25A, 32% on Cdc25B and 0% at Cdc25C. In addition, the IC50 came out at 2.3 µM at Cdc25B (setting [1]) and 24.4 µM at Cdc25B (setting [2]).

`CC(C)c1[nH]c2ccccc2c1C1=C(O)C(=O)C=C(O)C1=O` [2F, 2,5-dihydroxy-3-(2-isopropyl-1H-indol-3-yl)-[1,4]-benzoquinone]: the inhibition at 50 µM was determined as 58% at Cdc25A, 13% on Cdc25B and 0% on Cdc25C. Moreover, the IC50 at Cdc25B (setting [1]) stood at 8.3 µM.

Take `CC1(c2[nH]c3ccccc3c2C2=C(O)C(=O)C=C(O)C2=O)CC1` [2G, 2,5-dihydroxy-3-[2-(1-methylcycloproyl)-1H-indol-3-yl]-[1,4]-benzoquinone]: the inhibition at 50 µM was 49% at Cdc25A, 17% on Cdc25B and 0% on Cdc25C. Also, on Cdc25B (setting [1]), the IC50 was found to be 3.6 µM.

For the compound `CC(C)(C)c1[nH]c2ccccc2c1C1=C(O)C(=O)C=C(O)C1=O` [2H, 2,5-dihydroxy-3-(2-tert-butyl-1H-indol-3-yl)-[1,4]-benzoquinone], the inhibition at 50 µM on Cdc25A was found to be 31%; at Cdc25B, 11%; at Cdc25C, 0%. Further, the IC50 at Cdc25B (setting [1]) is 13.9 µM.

`CC1(c2[nH]c3ccccc3c2C2=C(O)C(=O)C=C(O)C2=O)CCCCC1` [3A, 2,5-dihydroxy-3-[2-(1-methylcyclohexyl)-1H-indol-3-yl]-[1,4]-benzoquinone]: the inhibition at 50 µM at Cdc25A came to 69%; at Cdc25B it was 11%; at Cdc25C, 22%. For the same compound, the IC50 at Cdc25B (setting [1]) was 82.9 µM.

As to `O=C1C=C(O)C(=O)C(c2c(-c3ccccc3)[nH]c3ccccc23)=C1O` [3B, 2,5-dihydroxy-3-(2-phenyl-1H-indol-3-yl)-[1,4]-benzoquinone], the inhibition at 50 µM at Cdc25A came to 93%; at Cdc25B, 38%; at Cdc25C it was 18%. Besides, at Cdc25B (setting [1]), the IC50 came to 22.2 µM.

For the compound `C=CC(C)(C)c1[nH]c2ccccc2c1C1=C(O)C(=O)C=C(O)C1=O` [3C, 2,5-dihydroxy-3-[2-(1,1-dimethyl-allyl)-1H-indol-3-yl]-[1,4]-benzoquinone], the inhibition at 50 µM on Cdc25A is 40%; at Cdc25B, 0%; on Cdc25C, 21%. Also, at Cdc25B (setting [1]), the IC50 was found to be 40.3 µM.

On to `O=C1C=C(O)C(=O)C(c2c[nH]c3cccc(F)c23)=C1O` [3D, 2,5-dihydroxy-3-(4-fluoro-1H-indol-3-yl)-[1,4]-benzoquinone], for which the inhibition at 50 µM at Cdc25A is 59%; at Cdc25B, 5%; on Cdc25C, 0%. Besides, the IC50 amounted to 1.2 µM at Cdc25B (setting [1]) and 15.9 µM at Cdc25B (setting [2]).

Take `O=C1C=C(O)C(=O)C(c2c[nH]c3cccc(Cl)c23)=C1O` [3E, 2,5-dihydroxy-3-(4-chloro-1H-indol-3-yl)-[1,4]-benzoquinone]: the inhibition at 50 µM was 67% on Cdc25A, 21% at Cdc25B and 0% at Cdc25C. The IC50 was 3 µM at Cdc25B (setting [1]) and 8.4 µM at Cdc25B (setting [2]).

With `O=C1C=C(O)C(=O)C(c2c[nH]c3cccc(Br)c23)=C1O` [3F, 2,5-dihydroxy-3-(4-bromo-1H-indol-3-yl)-[1,4]-benzoquinone], the inhibition at 50 µM came to 0% at Cdc25A, 6% at Cdc25B and 54% on Cdc25C. Besides, the IC50 is 3.1 µM on Cdc25B (setting [1]) and above 2 µM on Cdc25B (setting [2]).

With `COc1cccc2[nH]cc(C3=C(O)C(=O)C=C(O)C3=O)c12` [3G, 2,5-dihydroxy-3-(4-methoxy-1H-indol-3-yl)-[1,4]-benzoquinone], the figures for the inhibition at 50 µM at Cdc25A, on Cdc25B and on Cdc25C were 77%, 21% and 19%, respectively. Also, the IC50 on Cdc25B (setting [1]) is 7.2 µM.

For the compound `O=C1C=C(O)C(=O)C(c2c[nH]c3cccc(OCc4ccccc4)c23)=C1O` [3H, 2,5-dihydroxy-3-(4-benzyloxy-1H-indol-3-yl)-[1,4]-benzoquinone], the results for the inhibition at 50 µM on Cdc25A, at Cdc25B and at Cdc25C were 87%, 0% and 2%, respectively. Moreover, on Cdc25B (setting [1]), the IC50 is 4.6 µM.

As to `Cc1cccc2[nH]cc(C3=C(O)C(=O)C=C(O)C3=O)c12` [4A, 2,5-dihydroxy-3-(4-methyl-1H-indol-3-yl)-[1,4]-benzoquinone], the results for the inhibition at 50 µM at Cdc25A, at Cdc25B and on Cdc25C were 51%, 9% and 28%, respectively. The IC50 at Cdc25B (setting [1]) was 6 µM.

Consider `O=C1C=C(O)C(=O)C(c2c[nH]c3ccc(F)cc23)=C1O` [4B, 2,5-dihydroxy-3-(5-fluoro-1H-indol-3-yl)-[1,4]-benzoquinone], for which the inhibition at 50 µM at Cdc25A came out at 64%; on Cdc25B, 32%; at Cdc25C it was 23%. For the same compound, the IC50 at Cdc25B (setting [1]) came to 11.7 µM.

Regarding `O=C1C=C(O)C(=O)C(c2c[nH]c3ccc(Cl)cc23)=C1O` [4C, 2,5-dihydroxy-3-(5-chloro-1H-indol-3-yl)-[1,4]-benzoquinone], the inhibition at 50 µM on Cdc25A amounted to 95%; on Cdc25B, 32%; on Cdc25C, 45%. Also, the IC50 on Cdc25B (setting [1]) stood at 2.3 µM.

Regarding `O=C1C=C(O)C(=O)C(c2c[nH]c3ccc(Br)cc23)=C1O` [4D, 2,5-dihydroxy-3-(5-bromo-1H-indol-3-yl)-[1,4]-benzoquinone], the inhibition at 50 µM was determined as 96% at Cdc25A, 55% at Cdc25B and 26% at Cdc25C. In addition, the IC50 on Cdc25B (setting [1]) stood at 2.4 µM.

The values are drawn from patent US7057052B2, “Heterocyclic quinones as pharmaceutical agents” (Duke University, priority 2002, dated 2006).
